Test results taken from ChEMBL document CHEMBL4346743, “Design and synthesis of biotinylated Hexylselen as a probe to identify KGA allosteric inhibitors by a convenient biomolecular interaction assay” (Bioorg Med Chem Lett, 2019).
Active and inactive are the calls of the source. The rule behind the calls is not given here.

How the values were obtained:
[1] = molecular target: T1, Glutaminase kidney isoform, mitochondrial (Homo sapiens) (UniProt O94925); experiment: Binding affinity to human KGA assessed as association rate constant at 33 uM
T1 sequence (whole entry): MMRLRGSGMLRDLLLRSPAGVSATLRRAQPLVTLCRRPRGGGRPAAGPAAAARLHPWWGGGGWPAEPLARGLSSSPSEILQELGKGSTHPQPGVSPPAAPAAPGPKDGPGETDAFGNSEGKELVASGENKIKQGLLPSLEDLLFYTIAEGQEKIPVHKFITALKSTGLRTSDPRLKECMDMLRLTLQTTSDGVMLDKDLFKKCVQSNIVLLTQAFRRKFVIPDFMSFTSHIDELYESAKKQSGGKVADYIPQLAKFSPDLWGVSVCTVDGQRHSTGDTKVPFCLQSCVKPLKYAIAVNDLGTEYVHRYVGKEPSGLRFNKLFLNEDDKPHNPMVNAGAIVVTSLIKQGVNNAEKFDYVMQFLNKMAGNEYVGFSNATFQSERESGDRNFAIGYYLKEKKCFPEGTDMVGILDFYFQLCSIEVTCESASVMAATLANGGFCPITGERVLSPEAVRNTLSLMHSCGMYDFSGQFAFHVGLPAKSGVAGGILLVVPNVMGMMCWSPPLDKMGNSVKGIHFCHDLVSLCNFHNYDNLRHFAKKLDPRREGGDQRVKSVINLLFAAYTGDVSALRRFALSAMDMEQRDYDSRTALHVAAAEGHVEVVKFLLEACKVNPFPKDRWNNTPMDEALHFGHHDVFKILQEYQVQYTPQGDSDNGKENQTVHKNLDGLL

[2] = molecular target: T1, Glutaminase kidney isoform, mitochondrial (Homo sapiens); experiment: Binding affinity to human KGA assessed as dissociation rate constant at 33 uM
[3] = molecular target: T1, Glutaminase kidney isoform, mitochondrial (Homo sapiens); experiment: Competitive binding affinity to human KGA after 1 hr in presence of ebselen by biolayer interferometry
[4] = molecular target: T1, Glutaminase kidney isoform, mitochondrial (Homo sapiens); experiment: Competitive binding affinity to human KGA in presence of BPTES by biolayer interferometry
[5] = molecular target: T2, Glutaminase kidney isoform, mitochondrial (Homo sapiens, UniProt O94925); experiment: Binding affinity to human KGA assessed as dissociation constant
T2 sequence (O94925 whole entry): T1 sequence (whole entry)

[6] = molecular target: T2, Glutaminase kidney isoform, mitochondrial; experiment: Allosteric inhibition of human KGA assessed as reduction in glutamate formation using glutamine as substrate pretreated with enzyme for 15 mins followed by substrate addition and measured after 3 hrs by KGA/GDH coupled assay

Ka [1]: 1.4 ×10⁴ /Ms
Kdiss [2]: 2 ×10⁻³ /s
Activity [3]: inactive
Activity [4]: Active
Kd [5]: 142 nM
IC50 [6]: 73 nM
Structure (SMILES): COc1ccc2[se]n(CCCCCCn3[se]c4ccc(OCCCCC[C@@H]5SC[C@@H]6NC(=O)N[C@@H]65)cc4c3=O)c(=O)c2c1
